Test results taken from ChEMBL document CHEMBL1135375, “Synthesis and biological activities of YkFA analogues: effects of position 4 substitutions and altered ring size on in vitro opioid activity” (Bioorg Med Chem Lett, 2002).

Assays:
[1] = biological target: Delta-type opioid receptor (Mus musculus, UniProt P32300); assay: Concentration required for 50% inhibition of electrically induced contraction of the mouse vas deferens mediated through delta opioid receptor; type: functional
Mu-type opioid receptor = Mu-type opioid receptor (Cavia porcellus, UniProt P97266); assay: Concentration required for 50% inhibition of electrically induced contraction of the guinea pig ileum mediated through mu opioid receptor; type: functional, tissue-based
[2] = test system: Opioid receptors; mu & delta; assay: Selectivity ratio against mu opioid receptor to that of delta opioid receptor was determined

Chain of Delta-type opioid receptor (P32300 whole entry): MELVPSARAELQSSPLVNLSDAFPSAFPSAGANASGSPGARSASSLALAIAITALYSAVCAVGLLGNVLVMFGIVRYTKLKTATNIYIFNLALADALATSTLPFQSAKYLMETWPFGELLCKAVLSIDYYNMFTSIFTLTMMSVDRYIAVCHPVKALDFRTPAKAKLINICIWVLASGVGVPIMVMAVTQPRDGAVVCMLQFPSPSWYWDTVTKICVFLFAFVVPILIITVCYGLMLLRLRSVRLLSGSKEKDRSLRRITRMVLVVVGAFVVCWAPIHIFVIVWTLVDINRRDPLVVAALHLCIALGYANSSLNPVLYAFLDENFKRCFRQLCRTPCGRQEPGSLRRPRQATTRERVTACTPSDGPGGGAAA
Chain of Mu-type opioid receptor (P97266 whole entry): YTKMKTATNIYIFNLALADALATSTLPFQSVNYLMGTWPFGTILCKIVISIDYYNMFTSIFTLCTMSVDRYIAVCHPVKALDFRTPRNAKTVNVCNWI

For `CC[C@H](C)[C@@H]1NC(=O)[C@H](Cc2ccccc2)NC(=O)[C@@H](CCCCN)N(C(=O)[C@@H](N)Cc2ccc(O)cc2)C1=O`, the IC50 [1] was 6.3 nM and the IC50 (Mu-type opioid receptor) was 1.1 nM.

Compound `C[C@H]1NC[C@H](Cc2ccccc2)NC(=O)[C@H](CCN)N(C(=O)[C@@H](N)Cc2ccc(O)cc2)C1=O` has an IC50 [1] of 252 nM, an IC50 (Mu-type opioid receptor) of 21.4 nM and a Ratio [2] of 12.

With `NCCCC[C@@H]1C(=O)N[C@@H](Cc2ccccc2)C(=O)N[C@@H](CC(=O)O)C(=O)N1C(=O)[C@@H](N)Cc1ccc(O)cc1` the IC50 [1] was 73.8 nM and the IC50 (Mu-type opioid receptor) was 78.8 nM.

With `CC(C)C[C@H]1NC(=O)[C@H](Cc2ccccc2)NC(=O)[C@H](CCCCN)N(C(=O)[C@@H](N)Cc2ccc(O)cc2)C1=O` the Ratio [2] was 4.5.

`CC(C)C[C@@H]1NC(=O)[C@H](Cc2ccccc2)NC(=O)[C@@H](CCCCN)N(C(=O)[C@@H](N)Cc2ccc(O)cc2)C1=O` was tested, and the IC50 [1] was 6.2 nM and the IC50 (Mu-type opioid receptor) was 1.4 nM.

Compound `C[C@@H]1NC(=O)[C@H](Cc2ccccc2)NC(=O)[C@@H](CCN)N(C(=O)[C@@H](N)Cc2ccc(O)cc2)C1=O` has an IC50 [1] of 40 nM and an IC50 (Mu-type opioid receptor) of 3.5 nM.

Work on `C[C@H]1NC(=O)[C@H](Cc2ccccc2)NC(=O)[C@H](CCN)N(C(=O)[C@@H](N)Cc2ccc(O)cc2)C1=O` yielded a Ratio [2] of 12.

`CC[C@@H](C)[C@H]1NC(=O)[C@H](Cc2ccccc2)NC(=O)[C@H](CCCCN)N(C(=O)[C@@H](N)Cc2ccc(O)cc2)C1=O` gave a Ratio [2] of 6.

`NCCCC[C@H]1C(=O)N[C@@H](Cc2ccccc2)C(=O)N[C@H](CC(=O)O)C(=O)N1C(=O)[C@@H](N)Cc1ccc(O)cc1` gave a Ratio [2] of 0.94.

`CC(C)[C@@H]1NC(=O)[C@H](Cc2ccccc2)NC(=O)[C@@H](CCCCN)N(C(=O)[C@@H](N)Cc2ccc(O)cc2)C1=O` gave an IC50 [1] of 0.44 nM and an IC50 (Mu-type opioid receptor) of 0.2 nM.

`C[C@@H]1NC(=O)[C@H](Cc2ccccc2)NC(=O)[C@@H](CCCCN)N(C(=O)[C@@H](N)Cc2ccc(O)cc2)C1=O` showed an IC50 [1] of 0.54 nM and an IC50 (Mu-type opioid receptor) of 0.11 nM.

In the case of `C[C@H]1NC(=O)[C@H](Cc2ccccc2)NC(=O)[C@H](CCCCN)N(C(=O)[C@@H](N)Cc2ccc(O)cc2)C1=O`, the Ratio [2] is reported as 4.9.

With `CC(C)[C@H]1NC(=O)[C@H](Cc2ccccc2)NC(=O)[C@H](CCCCN)N(C(=O)[C@@H](N)Cc2ccc(O)cc2)C1=O` the Ratio [2] was 2.2.
